Laboratory results: patent US12599672B2, “KRAS proteolysis targeting chimeras” (PAQ Therapeutics Inc., priority 2023, dated 2026)

Assays:
Assay type in all cases: cell-based
KRAS = biological target: T1, KRAS (Homo sapiens, UniProt P01116); experiment: KRASamp MSD assay; settings: KE39 (KRAS amplified) cells, treated with test compounds for 24 hr, MSD readout of KRAS degradation
T1 construct: endogenous in cells; host or cells: KE39 (KRAS amplified) cells
Outline: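 KRAS-amplified KE39 cells treated with compound for 24 hr, then lysed in RIPA buffer with protease/phosphatase inhibitors. KRAS protein measured by MSD sandwich immunoassay against a recombinant WT KRAS standard curve; DC50 derived from curve fitting of degradation.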

KRAS G12V = biological target: T2, KRAS G12V (Homo sapiens, UniProt P01116, G12V); experiment: KRAS G12V HiBit assay; settings: SW620-KRAS (G12V)-HiBit-KI cells, compound treatment for 24 hours, class symbols
T2 construct: SW620-KRAS (G12V)-HiBit-KI cell (Pharmaron); host or cells: SW620-KRAS (G12V)-HiBit-KI cells (HiBiT knock-in at the endogenous KRAS locus)
Outline: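 HiBiT-tagged KRAS G12V cells treated 24 h with compound in a 3-fold, 10-point series (0.3 mM DMSO stock); lytic HiBiT reagent with LgBiT added after 15 min room-temperature equilibration. Degradation calculated against 0.1% DMSO high control.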

KRAS G12D = biological target: T3, KRAS G12D (Homo sapiens, UniProt P01116, G12D); experiment: KRAS G12D HiBit assay; settings: AsPc-1-KRAS (G12D)-HiBit-KI cell, compound treatment for 24 hours, absolute DC50
T3 construct: AsPc-1-KRAS (G12D)-HiBit-KI cell (Pharmaron); host or cells: AsPc-1-KRAS (G12D)-HiBit-KI cells (HiBiT knock-in at the endogenous KRAS locus)
Outline: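 Cells were treated for 24 h with compounds in a 3-fold, 10-point dilution series from a 0.3 mM DMSO stock, then equilibrated 15 min at room temperature. KRAS G12D HiBiT levels were read by luminescence after lytic Nano-Glo HiBiT reagent with LgBiT; inhibition calculated relative to 0.1% DMSO high control.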

T2 sequence (P01116 1-188 isoform P01116-2 G12V): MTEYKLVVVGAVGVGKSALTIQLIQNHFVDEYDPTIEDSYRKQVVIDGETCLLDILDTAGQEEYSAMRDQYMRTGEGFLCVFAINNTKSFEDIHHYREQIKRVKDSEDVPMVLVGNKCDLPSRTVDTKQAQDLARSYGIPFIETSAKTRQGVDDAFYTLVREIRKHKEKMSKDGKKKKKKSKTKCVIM
T1 sequence (P01116 1-188 isoform P01116-2): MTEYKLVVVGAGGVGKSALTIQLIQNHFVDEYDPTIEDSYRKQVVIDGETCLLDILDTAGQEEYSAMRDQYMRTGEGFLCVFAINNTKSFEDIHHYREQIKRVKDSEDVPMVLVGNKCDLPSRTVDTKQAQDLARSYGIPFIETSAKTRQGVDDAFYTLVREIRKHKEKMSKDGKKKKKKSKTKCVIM
T3 sequence (P01116 1-188 isoform P01116-2 G12D): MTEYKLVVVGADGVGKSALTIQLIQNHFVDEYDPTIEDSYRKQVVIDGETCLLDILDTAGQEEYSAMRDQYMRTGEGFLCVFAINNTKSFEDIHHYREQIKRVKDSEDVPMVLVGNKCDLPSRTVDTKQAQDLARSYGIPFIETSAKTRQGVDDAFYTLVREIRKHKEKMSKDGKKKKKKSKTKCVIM

Structure (SMILES)	DC50 (KRAS) [nM]	DC50 (KRAS G12V) [nM]	DC50 (KRAS G12D; class symbols) [nM]	DC50 (KRAS G12D; numeric bounds given in place of class symbols) [nM]
CCc1c(F)ccc2cc(O)cc(-c3ncc4c(N5CCC[C@@](C)(O)C5)nc(OC[C@@]56CCCN5[C@H](COC(=O)N5CCC7(CCC(CN8CCC(c9ccc%10c(c9)n(C)c(=O)n%10C9CCC(=O)NC9=O)CC8)CC7)CC5)CC6)nc4c3F)c12 (stereo partly drawn) [Compound 466, ((3S,7aS)-7a-(((7-(8-ethyl-7-fluoro-3-hydroxynaphthalen-1-yl)-8-fluoro-4-((R)-3-hydroxy-3-methylpiperidin-1-yl)pyrido[4,3-d]pyrimidin-2-yl)oxy)methyl)hexahydro-1H-pyrrolizin-3-yl)methyl 9-((4-(1-(2,6-dioxopiperidin-3-yl)-3-methyl-2-oxo-2,3-dihydro-1H-benzo[d]imidazol-5-yl)piperidin-1-yl)methyl)-3-azaspiro[5.5]undecane-3-carboxylate]	< 1	< 10	< 100	–
CCc1c(F)ccc2cc(O)cc(-c3ncc4c(N5CCC[C@@](C)(O)C5)nc(OC[C@@]56CCCN5[C@H](COC(=O)N5CC(CN7CCC(c8ccc9c(c8)n(C)c(=O)n9C8CCC(=O)NC8=O)CC7)C5)CC6)nc4c3F)c12 (stereo partly drawn) [Compound 394, ((3S,7aS)-7a-(((7-(8-ethyl-7-fluoro-3-hydroxynaphthalen-1-yl)-8-fluoro-4-((R)-3-hydroxy-3-methylpiperidin-1-yl)pyrido[4,3-d]pyrimidin-2-yl)oxy)methyl)hexahydro-1H-pyrrolizin-3-yl)methyl 3-((4-(1-(2,6-dioxopiperidin-3-yl)-3-methyl-2-oxo-2,3-dihydro-1H-benzo[d]imidazol-5-yl)piperidin-1-yl)methyl)azetidine-1-carboxylate]	1 to 10	< 10	–	> 100
CCc1c(F)ccc2cc(O)cc(-c3ncc4c(N5CCC[C@@](C)(O)C5)nc(OC[C@@]56CCCN5[C@H](CNC(=O)c5ccc(CN7CCC(c8ccc9c(c8)n(C)c(=O)n9C8CCC(=O)NC8=O)CC7)cc5)CC6)nc4c3F)c12 (stereo partly drawn) [Compound 484, 4-((4-(1-(2,6-dioxopiperidin-3-yl)-3-methyl-2-oxo-2,3-dihydro-1H-benzo[d]imidazol-5-yl)piperidin-1-yl)methyl)-N-(((3S,7aS)-7a-(((7-(8-ethyl-7-fluoro-3-hydroxynaphthalen-1-yl)-8-fluoro-4-((R)-3-hydroxy-3-methylpiperidin-1-yl)pyrido[4,3-d]pyrimidin-2-yl)oxy)methyl)hexahydro-1H-pyrrolizin-3-yl)methyl)benzamide]	≥ 10	10 to 100	< 100	–
CCc1c(F)ccc2cc(O)cc(-c3ncc4c(N5CCC[C@@](C)(O)C5)nc(OC[C@]56CCCN5[C@H](CCCN5CCC(c7ccc8c(c7)n(C)c(=O)n8C7CCC(=O)NC7=O)CC5)CC6)nc4c3F)c12 (stereo partly drawn) [Compound 473, 3-(5-(1-(3-((3R,7aR)-7a-(((7-(8-Ethyl-7-fluoro-3-hydroxynaphthalen-1-yl)-8-fluoro-4-((R)-3-hydroxy-3-methylpiperidin-1-yl)pyrido[4,3-d]pyrimidin-2-yl)oxy)methyl)hexahydro-1H-pyrrolizin-3-yl)propyl)piperidin-4-yl)-3-methyl-2-oxo-2,3-dihydro-1H-benzo[d]imidazol-1-yl) piperidine-2,6-dione]	1 to 10	10 to 100	< 100	–
CCc1c(F)ccc2cc(O)cc(-c3ncc4c(N5CCCC(F)(F)C5)nc(OC[C@@]56CCCN5[C@H](COC(=O)N5CCC(CN7CCC(c8ccc9c(c8)n(C)c(=O)n9C8CCC(=O)NC8=O)CC7)CC5)CC6)nc4c3F)c12 (stereo partly drawn) [Compound 437, ((3S,7aS)-7a-(((4-(3,3-difluoropiperidin-1-yl)-7-(8-ethyl-7-fluoro-3-hydroxynaphthalen-1-yl)-8-fluoropyrido[4,3-d]pyrimidin-2-yl)oxy)methyl)hexahydro-1H-pyrrolizin-3-yl)methyl 4-((4-(1-(2,6-dioxopiperidin-3-yl)-3-methyl-2-oxo-2,3-dihydro-1H-benzo[d]imidazol-5-yl)piperidin-1-yl)methyl)piperidine-1-carboxylate]	< 1	< 10	< 100	–
CCc1c(F)ccc2cc(O)cc(-c3ncc4c(N5CCC[C@@](C)(O)C5)nc(OC[C@@]56CCCN5[C@@H](COC(=O)N5CCC(CCCCOc7ccc8c(c7)n(C)c(=O)n8C7CCC(=O)NC7=O)CC5)CC6)nc4c3F)c12 (stereo partly drawn) [Compound 317, ((3R,7aS)-7a-(((7-(8-ethyl-7-fluoro-3-hydroxynaphthalen-1-yl)-8-fluoro-4-((R)-3-hydroxy-3-methylpiperidin-1-yl)pyrido[4,3-d]pyrimidin-2-yl)oxy)methyl)hexahydro-1H-pyrrolizin-3-yl)methyl 4-(4-((1-(2,6-dioxopiperidin-3-yl)-3-methyl-2-oxo-2,3-dihydro-1H-benzo[d]imidazol-5-yl)oxy)butyl)piperidine-1-carboxylate]	≥ 10	> 100	< 100	–
C#Cc1c(F)ccc2cc(O)cc(-c3ccc4c(N5CCC[C@@](C)(O)C5)nc(OCC5(CN6CCN(CC7CCN(c8ccc9c(c8)n(C)c(=O)n9C8CCC(=O)NC8=O)CC7)CC6)CC5)nc4c3F)c12 (stereo partly drawn) [Compound 11]	1 to 10	< 10	> 300	–
CCc1c(F)ccc2cc(O)cc(-c3ncc4c(N5CC[C@@H](O)C5)nc(OC[C@@]56CCCN5[C@H](COC(=O)N5CCC7(CC5)CC(N5CCC(c8ccc9c(c8)n(C)c(=O)n9C8CCC(=O)NC8=O)CC5)C7)CC6)nc4c3F)c12 (stereo partly drawn) [Compound 350, ((3S,7aS)-7a-(((7-(8-ethyl-7-fluoro-3-hydroxynaphthalen-1-yl)-8-fluoro-4-((R)-3-hydroxypyrrolidin-1-yl)pyrido[4,3-d]pyrimidin-2-yl)oxy)methyl)hexahydro-1H-pyrrolizin-3-yl)methyl 2-(4-(1-(2,6-dioxopiperidin-3-yl)-3-methyl-2-oxo-2,3-dihydro-1H-benzo[d]imidazol-5-yl)piperidin-1-yl)-7-azaspiro[3.5]nonane-7-carboxylate]	1 to 10	< 10	< 100	–
CCc1c(F)ccc2cc(O)cc(-c3ncc4c(N5CCC[C@@](C)(O)C5)nc(OC[C@@]56CCCN5[C@H](COC(=O)NC5CCN(CC7CCN(c8ccc9c(c8)n(C)c(=O)n9C8CCC(=O)NC8=O)CC7)CC5)CC6)nc4c3F)c12 (stereo partly drawn) [Compound 428, ((3S,7aS)-7a-(((7-(8-ethyl-7-fluoro-3-hydroxynaphthalen-1-yl)-8-fluoro-4-((R)-3-hydroxy-3-methylpiperidin-1-yl)pyrido[4,3-d]pyrimidin-2-yl)oxy)methyl)hexahydro-1H-pyrrolizin-3-yl)methyl (1-((1-(1-(2,6-dioxopiperidin-3-yl)-3-methyl-2-oxo-2,3-dihydro-1H-benzo[d]imidazol-5-yl)piperidin-4-yl)methyl)piperidin-4-yl)carbamate]	1 to 10	10 to 100	< 100	–
